Assay: Adverse events (CTCAE 4.0) under apatinib plus gefitinib
Assay type: in vivo, human
[1] = Apatinib 500 mg Cohort (n = 6), with gefitinib 250 mg, treatment‐related AE, patients (%)

N#CC1(c2ccc(NC(=O)c3cccnc3NCc3ccncc3)cc2)CCCC1 [Apatinib]
Abdominal distention, ALL [1]: 0 | Abdominal distention, Grade 1–2 [1]: 0 | Abdominal distention, Grade 3–4 [1]: 0 | Blurred vision, ALL [1]: 1 (16.7%) | Blurred vision, Grade 1–2 [1]: 1 (16.7%) | Blurred vision, Grade 3–4 [1]: 0 | Cough, ALL [1]: 1 (16.7%) | Cough, Grade 1–2 [1]: 1 (16.7%) | Cough, Grade 3–4 [1]: 0 | Diarrhea, ALL [1]: 4 (66.7%) | Diarrhea, Grade 1–2 [1]: 3 (50.0%) | Diarrhea, Grade 3–4 [1]: 1 (16.7%) | Dizziness, ALL [1]: 1 (16.7%) | Dizziness, Grade 1–2 [1]: 1 (16.7%) | Dizziness, Grade 3–4 [1]: 0 | Dry skin, ALL [1]: 1 (16.7%) | Dry skin, Grade 1–2 [1]: 1 (16.7%) | Dry skin, Grade 3–4 [1]: 0 | Dysgeusia, ALL [1]: 0 | Dysgeusia, Grade 1–2 [1]: 0 | Dysgeusia, Grade 3–4 [1]: 0 | Eczema, ALL [1]: 0 | Eczema, Grade 1–2 [1]: 0 | Eczema, Grade 3–4 [1]: 0 | Elevated ALT, ALL [1]: 5 (83.3%) | Elevated ALT, Grade 1–2 [1]: 4 (66.7%) | Elevated ALT, Grade 3–4 [1]: 1 (16.7%) | Elevated AST, ALL [1]: 3 (50.0%) | Elevated AST, Grade 1–2 [1]: 3 (50%) | Elevated AST, Grade 3–4 [1]: 0 | Epistaxis, ALL [1]: 1 (16.7%) | Epistaxis, Grade 1–2 [1]: 1 (16.7%) | Epistaxis, Grade 3–4 [1]: 0 | Fatigue, ALL [1]: 1 (16.7%) | Fatigue, Grade 1–2 [1]: 1 (16.7%) | Fatigue, Grade 3–4 [1]: 0 | Gastrointestinal bleeding, ALL [1]: 0 | Gastrointestinal bleeding, Grade 1–2 [1]: 0 | Gastrointestinal bleeding, Grade 3–4 [1]: 0 | HFSR, ALL [1]: 2 (33.3%) | HFSR, Grade 1–2 [1]: 2 (33.3%) | HFSR, Grade 3–4 [1]: 0 | Haematuria, ALL [1]: 0 | Haematuria, Grade 1–2 [1]: 0 | Haematuria, Grade 3–4 [1]: 0 | Headache, ALL [1]: 0 | Headache, Grade 1–2 [1]: 0 | Headache, Grade 3–4 [1]: 0 | Hematochezia, ALL [1]: 0 | Hematochezia, Grade 1–2 [1]: 0 | Hematochezia, Grade 3–4 [1]: 0 | Hypertension, ALL [1]: 4 (66.7%) | Hypertension, Grade 1–2 [1]: 3 (50.0%) | Hypertension, Grade 3–4 [1]: 1 (16.7%) | Increased bilirubin, ALL [1]: 1 (16.7%) | Increased bilirubin, Grade 1–2 [1]: 1 (16.7%) | Increased bilirubin, Grade 3–4 [1]: 0 | Increased creatinine, ALL [1]: 1 (16.7%) | Increased creatinine, Grade 1–2 [1]: 1 (16.7%) | Increased creatinine, Grade 3–4 [1]: 0 | Leukopenia, ALL [1]: 1 (16.7%) | Leukopenia, Grade 1–2 [1]: 1 (16.7%) | Leukopenia, Grade 3–4 [1]: 0 | Nausea, ALL [1]: 3 (50.0%) | Nausea, Grade 1–2 [1]: 3 (50.0%) | Nausea, Grade 3–4 [1]: 0 | Neutropenia, ALL [1]: 1 (16.7%) | Neutropenia, Grade 1–2 [1]: 1 (16.7%) | Neutropenia, Grade 3–4 [1]: 0 | Oulorrhagia, ALL [1]: 0 | Oulorrhagia, Grade 1–2 [1]: 0 | Oulorrhagia, Grade 3–4 [1]: 0 | Paronychia, ALL [1]: 0 | Paronychia, Grade 1–2 [1]: 0 | Paronychia, Grade 3–4 [1]: 0 | Periodontitis, ALL [1]: 0 | Periodontitis, Grade 1–2 [1]: 0 | Periodontitis, Grade 3–4 [1]: 0 | Pharyngalgia, ALL [1]: 0 | Pharyngalgia, Grade 1–2 [1]: 0 | Pharyngalgia, Grade 3–4 [1]: 0 | Pneumonia (non‐interstitial), ALL [1]: 0 | Pneumonia (non‐interstitial), Grade 1–2 [1]: 0 | Pneumonia (non‐interstitial), Grade 3–4 [1]: 0 | Proteinuria, ALL [1]: 4 (66.7%) | Proteinuria, Grade 1–2 [1]: 2 (33.3%) | Proteinuria, Grade 3–4 [1]: 2 (33.3%) | Pruritus, ALL [1]: 1 (16.7%) | Pruritus, Grade 1–2 [1]: 1 (16.7%) | Pruritus, Grade 3–4 [1]: 0 | Rash, ALL [1]: 6 (100%) | Rash, Grade 1–2 [1]: 6 (100%) | Rash, Grade 3–4 [1]: 0 | Stomatitis, ALL [1]: 0 | Stomatitis, Grade 1–2 [1]: 0 | Stomatitis, Grade 3–4 [1]: 0 | Thrombocytopenia, ALL [1]: 2 (33.3%) | Thrombocytopenia, Grade 1–2 [1]: 2 (33.3%) | Thrombocytopenia, Grade 3–4 [1]: 0 | Trachyphonia, ALL [1]: 1 (16.7%) | Trachyphonia, Grade 1–2 [1]: 1 (16.7%) | Trachyphonia, Grade 3–4 [1]: 0 | Vomiting, ALL [1]: 2 (33.3%) | Vomiting, Grade 1–2 [1]: 2 (33.3%) | Vomiting, Grade 3–4 [1]: 0 | Serious Adverse Event (Patient 007, Apatinib Dose 500 mg, Discontinuation, Correlation with Apatinib Yes, Remission): Hypertension

From paper PMC7403827 (Clinical and Translational Medicine, 2020)
